What was measured:
Bcl-2 protein = Bcl-2 protein (histag-Bcl-2, UniProtKB P10415) (Homo sapiens, UniProt P10415); experiment: Inhibition of Bcl-2 by the fluorescence polarisation technique; assay type: binding; details: for IC50: fluorescence polarisation, 2 hours incubation, read-out: IC50 (μM) Bcl-2 FP
Description: The fluorescence polarisation tests were carried out on microplates (384 wells). The Bcl-2 protein, labelled (histag-Bcl-2 such that Bcl-2 corresponds to the UniProtKB® primary accession number: P10415), at a final concentration of 5×10^−9M, is mixed with a fluorescent peptide (Fluorescein-REIGAQLRRMADDLNAQY), at a final concentration of 1.00×10^−9M in a buffer solution (Hepes 10 mM, NaCl 150 mM, Tween20 0.05%, pH 7.4), in the presence or absence of increasing concentrations of test compounds. After incubation for 2 hours, the fluorescence polarisation is measured.

[1] = tested on: RS4; 11 leukaemia tumour line; experiment: In vitro cytotoxicity, Microculture Tetrazolium Assay (MTT); assay type: cell-based; details: Homo sapiens, RS4-11, 48 h, 11 cells, 48 hours exposure
Description: The cytotoxicity studies were carried out on the RS4; 11 leukaemia tumour line.
The cells are distributed onto microplates and exposed to the test compounds for 48 hours.
The cell viability is then quantified by a colorimetric assay, the Microculture Tetrazolium Assay (Cancer Res., 1987, 47, 939-942).

[2] = tested on: cleaved (activated) form of caspase 3 in RS4; 11 tumour lysates; experiment: Quantification of the cleaved form of caspase 3 in vivo (MSD ELISA) in RS4; 11 xenograft; design: species or system mice (SCID strain); key: ratio of cleaved caspase 3, treated vs control mice; details: oral, 2 hours' treatment
Description: The ability of the compounds of the invention to activate caspase 3 is evaluated in a xenograft model of RS4; 11 leukaemia cells. 1×10^7 RS4; 11 cells are grafted sub-cutaneously into immunosuppressed mice (SCID strain). 25 to 30 days after the graft, the animals are treated orally with the various compounds. After 2 hours' treatment, the tumour masses are recovered and lysed, and the cleaved (activated) form of caspase 3 is quantified in the tumour lysates. This quantification is carried out using the “Meso Scale Discovery (MSD) ELISA platform” test, which specifically assays the cleaved form of caspase 3. It is expressed in the form of an activation factor corresponding to the ratio between the quantity of cleaved caspase 3 in the treated mice divided by the quantity of cleaved caspase 3 in the control mice.

Sequence of Bcl-2 protein (P10415 whole entry): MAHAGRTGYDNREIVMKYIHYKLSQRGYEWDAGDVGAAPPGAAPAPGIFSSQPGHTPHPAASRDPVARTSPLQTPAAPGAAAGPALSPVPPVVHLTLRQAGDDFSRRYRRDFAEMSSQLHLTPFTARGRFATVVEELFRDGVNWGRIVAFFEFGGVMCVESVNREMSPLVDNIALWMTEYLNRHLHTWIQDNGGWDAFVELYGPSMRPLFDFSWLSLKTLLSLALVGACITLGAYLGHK

IC50 (Bcl-2 protein) [µM]	SMILES	IC50 [1] [nM]	Activation factor ± SEM (versus control) ([2]; 25 mg/kg, PEG/EtOH/Water)	further results
0.0052	Cc1c2cc(n1C)-c1cc(Cl)ccc1C(=O)N1CCc3c(cccc3OCCCc3c(cnn3C)N(c3ccc(O)cc3)C2=O)C1 [Example 6, 11-Chloro-4-(4-hydroxyphenyl)-1,7,8-trimethyl-4,16,17,23,24,25-hexahydro-1H,14H-15,18-methano-6,9-(metheno)dibenzo[b,h]pyrazolo[4,3-p]-[1,6,11,15]oxatriazacycloicosine-5,14(8H)-dione]	26.6	32.3 ± 9.1	Activation factor ± SEM (versus control) ([2]; 12.5 mg/kg, PEG/EtOH/Watcr): 6.8 ± 4.2
0.00555	Cc1c2cc(n1C)-c1cc(Cl)ccc1C(=O)N1CCc3c(cccc3OCCc3c(cnn3C)N(c3ccc(O)cc3)C2=O)C1 [Example 16, 11-chloro-4-(4-hydroxyphenyl)-1,7,8-trimethyl-1,4,16,17,23,24-hexahydro-14H-15,18-methano-6,9-(metheno)dibenzo[l,r]pyrazolo[3,4-d][1,6,10,15]oxatriaza-cyclononadecine-5,14(8H)-dione]	53.3	31.7 ± 2.9	Activation factor ± SEM (versus control) ([2]; 50 mg/kg, PEG/EtOH/Water): 75.1 ± 13.2
0.00365	Cc1c2cc(n1C)-c1cc(Cl)ccc1C(=O)N1CCc3c(cccc3OCCCc3c(cc(C#N)n3C)N(c3ccc(O)cc3)C2=O)C1 [Example 18, 11-Chloro-4-(4-hydroxyphenyl)-1,7,8-trimethyl-5,14-dioxo-4,5,8,16,17,23,24,25-octahydro-1H,14H-15,18-methano-6,9-(metheno)dibenzo[b,h]-pyrrolo[3,2-p][1,6,11,15]oxatriazacycloicosine-2-carbonitrile]	8.36		Activation factor ± SEM (versus control) ([2]; 6.25 mg/kg, PEG/EtOH/Phosal): 7.8 ± 2.5; Activation factor ± SEM (versus control) ([2]; 12.5 mg/kg, PEG/EtOH/Phosal): 31.7 ± 6.0
	Cc1c(N2C(=O)c3cc(n(C)c3C)-c3cc(Cl)ccc3C(=O)N3CCCC(CCOc4cc(O)ccc42)C3)cc(C#N)n1C (stereo not shown) [Example 29, 4-[16-Chloro-3-hydroxy-19,20-dimethyl-13,22-dioxo-6,7,8,9,10,11,19,22-octahydro-13H,23H-8,12-methano-21,18-(metheno)dibenzo[b,j][1,4,8,13]oxatriazacyclo-nonadecin-23-yl]-1,5-dimethyl-1H-pyrrole-2-carbonitrile]	70.5		Activation factor ± SEM (versus control) ([2]; 25 mg/kg, PEG/EtOH/Phosal): 13.3 ± 6.3; Activation factor ± SEM (versus control) ([2]; 50 mg/kg, PEG/EtOH/Phosal): 54.4 ± 9.7
	Cc1c2cc(n1C)-c1cc(Cl)ccc1C(=O)N1CCC(CC1)COCCOCCOc1ncc(cn1)N(c1ccc(O)cc1)C2=O [Example 43, 6-Chloro-14-(4-hydroxyphenyl)-10,11-dimethyl-19,22,25-trioxa-1,10,14,17,32-pentaazapentacyclo[25.2.2.2˜15,18˜. 1˜9,12˜.0˜3,8˜]tetratriaconta-3,5,7,9(34),11,15,17,32-octaene-2,13-dione]	> 1880		Bcl-2 FP, % at given concentration (Bcl-2 protein; @10 μM): 34.8% @10 μM
0.00497	Cc1c2cc(n1C)-c1cc(Cl)ccc1C(=O)N1CCc3c(cccc3OCCN(C)CCOc3ncc(cn3)N(c3ccc(O)cc3)C2=O)C1 [Example 44, 10-Chloro-2-(4-hydroxyphenyl)-5,6,27-trimethyl-24,30-dioxa-2,6,15,27,32,35-hexaazahexacyclo[29.2.2.1˜4,7˜.1˜15,19˜.0˜8,13˜.0˜18,23˜]hepta-triaconta-1(33),4,7(37),8,10,12,18,20,22,31,34-undecaene-3,14-dione]	35.4		

— patent US11833162B2, “Macrocyclic derivatives, process for preparing same and pharmaceutical compositions containing same” (LES LABORATOIRES SERVIER, priority 2017, dated 2023)
